Consider one compound from patent US20260053847A1, “HYDROGEN-GAS-CONTAINING DRUG FOR CAUSAL TREATMENT OF ALZHEIMER'S DISEASE (DISEASE-MODIFYING DRUG)” (H2 GLOBAL GROUP S.R.O., priority 2022, published 2026).

Where two headings read alike, the source gives them in different places.

Data set [1] has as its system test subjects with the alipoprotein E4 (APOE4) genotype exhibiting mild cognitive impairment (MCI). The following applies: APOE4 genotype subgroup of randomized clinical trials; Patent Document 1; cited from earlier work.
Data set [2] has as its system patient with a severe form of Alzheimer's disease with incontinence of stool and urine. The following applies: one patient. On the procedure: (§1) A patient with a severe form of Alzheimer's disease with incontinence of stool and urine was given an inhaled gas mixture containing 3% (v/v) hydrogen gas and 21% (v/v) oxygen gas 2× daily for one hour.
In more detail, the patient was a person who was diagnosed with typical Alzheimer's disease in 2011 and was administered Alzheimer's drugs such as Donepezil, Galantamine, Lithium, etc. The condition was progressively worsening, the ADAS-cog score was 48/70, it was a severe form of Alzheimer's disease.
The patient was unable to recall their date of birth at that time, but was able to walk to the toilet to urinate or defecate on their own. Due to the rapid deterioration of their condition, other treatments were not possible, so hydrogen gas inhalation was started as an adjunctive/complementary therapy on Apr. 19, 2019.

Data set [3] deals with patients with Alzheimer's disease. The following applies: for changes in ADAS-cog scores versus control group not inhaling hydrogen gas: FIG. 2. As to the method:
The ADAS-cog assesses and scores word list equipment, speaking ability, verbal comprehension, speech difficulties in spontaneous speech, completion of commands, object and finger naming, constructional tasks, ideomotor skills, orientation, word recognition, and ability to reproduce test instructions. The range of scores is from 0 to 70, the higher the score, the greater the cognitive impairment (normal→several).
(§2) A mixture of hydrogen gas 3% (v/v) and oxygen gas 21% (v/v) was administered to 8 patients with Alzheimer's disease for 1 hour 2× per day. Inhalation was continued for a period of 6 months, after which hydrogen gas inhalation was discontinued and progress monitored.
(§3) Treatment efficacy was assessed by clinical assessment using ADAS-cog and neural quality (integrity) was assessed by MRI using DTI.
Statistical significance was assessed by Student's t-test, * indicates outputs for p¿ 0.05, ** for p¿ 0.01, indicating significant statistical significance.

Data set [4] relates to patient with a severe form of Alzheimer's disease. The settings on record: one patient. On the procedure: (§4) For explanation, we note that MRIs of the brain were performed • at the radiology department of Nishijima Hospital and the results were sent to the doctors via an electronic charting system. Digital tractographic imaging was performed using Neuro3D and GRAPPA technology, with five starting points set at locations where nerve bundles passed through the entire hippocampus. DTI was obtained at fractional anisotropy (FA) values of 0.1 and 0.2. The size of the pathway (tract) was calculated from the number of pixels in the pathway (tract) display, the number of pixels was calculated using Image J software. DTI at a fractional anisotropy (FA) value of 0.1 reflects visualization of the neuron as a whole, DTI reflects at a fractional anisotropy (FA) value of 0.2 • to the neural quality of the height visualisation.
as §1
The neural quality was assessed using advanced magnetic resonance imaging technology using the diffusion tensor imaging procedure.

The conditions of data set [5]: Phase I clinical trials; cited from earlier work.
Data set [6] deals with patients with Alzheimer's disease. The settings on record: for DTI area at FA value of 0.2 (neural quality): FIG. 3; for normalised DTI value FA=0.2/FA=0.1, statistical analysis: Student's t-test. On the procedure:
as §4
For example, the progression of nerve fibers in the hippocampal region of the temporal lobe of the subject's brain can be monitored using diffusion tensor imaging [DTI] and the area of nerve fibers monitored can be analyzed using the process procedures described below. • i) the process of generating a diffusion tensor imaging [DTI] image extracted from the course of nerve fibers in the hippocampal region of the temporal lobe of the subject's brain; • ii) the process of setting five control inputs at regular intervals so that the nerve fiber pathways extracted by process (i) pass through them; • iii) a process in which the fractional anisotropy (FA) is set to 0.2 and an image of the extracted nerve fibers in the hippocampus region is obtained; • iv) a process in which the area of the nerve fiber path is calculated from the number of pixels in the image obtained during the process iii); • v) the process of detecting the manifestations of dementia or predementia based on the measured values of the area of nerve fiber pathways.
In the method described above, the hippocampal region refers to the hippocampal region and the parahippocampal gyrus region; the extracted images of nerve fibers in the hippocampal region are from the lateral and axial views.
When the fractional anisotropy (FA) value is set to 0.1, the extracted image of nerve fibers in the hippocampus region is obtained, and in the process of calculating the area of nerve fiber pathways from the number of pixels in a given image, the area of nerve pathways at FA 0.2 is divided by the area of nerve pathways at FA 0.1 to calculate the FA ratio (normalization).
as §2, §3
For a more accurate quantitative analysis, normalization was performed for each measurement. Data variability was corrected by dividing the F=0.2 value by the simultaneous F=0.1 value. The number of pixels in the corresponding neuronal bundle pathway at FA=0.2 was normalized (divided) by the number of pixels at FA=0.1, and the mean and standard error were obtained from the normalized values from 4 lateral and axial images from the right and left hemispheres of each patient. Statistical significance was assessed by Student's t-test, * indicates outputs for p¿ 0.05, ** for p¿ 0.01, indicating significant statistical significance of the results.

Consider `[HH]` [hydrogen gas, Molecular hydrogen], for which, in data set [1], the “condition of subjects with mild cognitive impairment” value was “improved the condition”. The “ability to urinate and defecate (incontinence of stool and urine)” value in data set [2] (ADAS-cog 48/70, 3% (v/v) hydrogen + 21% (v/v) oxygen 2x daily for one hour, after two years of inhalation) is “able to urinate and defecate on their own”. In addition, the “fecal incontinence, frequency or severity of difficulties” value in data set [2] (January 2020, inhalation started Apr. 19, 2019) was “no improvement in the frequency or severity of difficulties”. The independent defecation entry in data set [2] (since Nov. 18, 2020, inhalation started Apr. 19, 2019) is “able to go and defecate on their own in almost all cases”. In addition, the “changes in ADAS-cog scores versus control group not inhaling hydrogen gas” value in data set [3] (6 months after cessation of inhalation, control 19 patients from past data) is recorded as “improvement persisted”; in data set [3] (one year after cessation of treatment, compared to pre-treatment status), “the improvement persisted compared to the pre-treatment status”. Further, the “average change in clinical symptoms assessed by ADAS-cog (cognitive function)” value in data set [3] (8 patients, hydrogen gas 3% (v/v) + oxygen 21% (v/v), 1 hour 2x per day, continuous inhalation for 6 months, FIG. 1) is listed as “an initial deterioration, but soon showed an improvement in cognitive function”. Besides, the “average change in clinical symptoms assessed by ADAS-cog (cognitive impairment)” value in data set [3] (8 patients, six months or one year after cessation of 6-month inhalation, compared to before treatment, FIG. 1) is “marked improvement in cognitive impairment”. Moreover, the “statistical significance of effect on ADAS-cog versus control and on normalised DTI” value in data set [3] (after hydrogen gas inhalation, FIGS. 2 and 4) was “statistically significant effect”. The “DTI display at FA=0.2 (qualitative neural quality)” value in data set [4] (FIG. 5D) was “new nerves have appeared”. For the same compound, the “area of nerve fibers visualized in the DTI at FA=0.2” value in data set [4] (after 2 years of inhalation, FIG. 5) is on record as “increased”. For the same compound, in data set [4] (after 6 months of hydrogen gas inhalation, FIG. 5), the “changes in DTI over time (effect of inhalation)” value was “the effect did not appear”. Besides, the “number of pixels (DTI area) at F=0.1 and F=0.2” value in data set [4] (after two years of inhalation (29 to 53 months), FIG. 6) was “slight increase in the number of pixels”. Besides, the “safety of hydrogen gas inhalation” value in data set [5] is recorded as “safety of hydrogen gas inhalation has been confirmed”. In addition, the “normalised DTI value FA=0.2/FA=0.1” value in data set [6] (1 year after end of treatment, compared with pre-treatment condition, FIG. 4) is given as “beneficial effect, compared with the pre-treatment condition, persisting”. Further, the “DTI area at FA value of 0.2 (neural quality)” value in data set [6] (6 months after cessation of hydrogen gas inhalation) is on record as “persisted”; in data set [6] (after 6 months of continuous hydrogen gas inhalation, 9 patients as printed), “neural quality was improved”; in data set [6] (one year after the end of inhalation, compared with start of inhalation) it was “able to maintain a favorable result compared with the condition at the start of inhalation”. Moreover, the “normalised DTI value FA=0.2/FA=0.1, statistical analysis” value in data set [6] (6 months after the end of treatment, FIG. 4) is given as “significant effect persisting”; in data set [6] (after 6 months of inhalation, FIG. 4), “significant effect”.
